From US20250230193A1, “CYCLIC COMPOUND HAVING SELECTIVE KRAS INHIBITORY EFFECT ON HRAS AND NRAS” (CHUGAI SEIYAKU KABUSHIKI KAISHA, priority 2022, published 2025)
Where a SMILES comes first, the peptide text is derived from it. Bridges are numbered along the chain shown (N, C = ends). [ ]: non-standard residue; d: D form. The star is where a group is joined. hPhe(3-Cl-4-CF3) = N[C@@H](CCc1ccc(C(F)(F)F)c(Cl)c1)C(=O)O; NPrPhe(4-CF3) = CCCN[C@@H](Cc1ccc(C(F)(F)F)cc1)C(=O)O; NMeAbu(4,4,4-F3) = CN[C@@H](CC(F)(F)F)C(=O)O; NMeGly(cPent) = CN[C@H](C(=O)O)C1CCCC1; Pro(4,4-F2) = O=C(O)[C@@H]1CC(F)(F)CN1; NMeGly(cBu) = CN[C@H](C(=O)O)C1CCC1; NMeD = CN[C@@H](CC(=O)O)C(=O)O; NMeL = CN[C@@H](CC(C)C)C(=O)O; NMeNva = CCC[C@H](NC)C(=O)O; NMeAbu = CC[C@H](NC)C(=O)O; Morpholide = C1CN(*)CCO1; NMeA = CN[C@@H](C)C(=O)O; Ac5c = NC1(C(=O)O)CCCC1; Aze = O=C(O)[C@@H]1CCN1; Ac4c = NC1(C(=O)O)CCC1; Sar = CNCC(=O)O

Experiments:
[1] = biological target: GDP-bound NRAS wild-type protein (Homo sapiens, UniProt P01111); test: Binding to NRAS by surface plasmon resonance (SPR), Single Cycle Kinetics; conditions: KD ratio NRAS/KRAS, SPR
[2] = biological target: GDP-bound HRAS wild-type protein (Homo sapiens, UniProt P01112); test: Binding to HRAS by surface plasmon resonance (SPR), Single Cycle Kinetics; conditions: KD ratio HRAS/KRAS, SPR
Sequence of GDP-bound HRAS wild-type protein (P01112 whole entry): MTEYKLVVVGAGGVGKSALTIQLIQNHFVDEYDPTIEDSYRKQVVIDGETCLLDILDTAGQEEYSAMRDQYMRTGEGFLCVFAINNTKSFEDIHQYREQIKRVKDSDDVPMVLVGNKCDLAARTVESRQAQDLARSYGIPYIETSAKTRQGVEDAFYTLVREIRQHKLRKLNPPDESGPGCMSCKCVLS

Sequence of GDP-bound NRAS wild-type protein (P01111 whole entry): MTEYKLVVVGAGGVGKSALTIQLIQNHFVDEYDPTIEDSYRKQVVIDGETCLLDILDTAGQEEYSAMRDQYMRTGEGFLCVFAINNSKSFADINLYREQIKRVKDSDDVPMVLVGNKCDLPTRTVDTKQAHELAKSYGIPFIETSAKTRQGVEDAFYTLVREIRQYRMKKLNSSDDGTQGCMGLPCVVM

Compound	NRAS/KRAS (ratio of KD for GDP-bound NRAS wild-type to KD for KRAS) [1]	HRAS/KRAS (ratio of KD for GDP-bound HRAS wild-type to KD for KRAS) [2]
CCCN1C(=O)[C@@H]2CCN2C(=O)[C@H](C)N(C)C(=O)[C@H]([C@@H](C)CC)NC(=O)[C@H](CC(F)(F)F)N(C)C(=O)C[C@@H](C(=O)N2CCOCC2)N(C)C(=O)[C@H](C2CCCC2)N(C)C(=O)C2(CCCC2)NC(=O)[C@@H]2CCCN2C(=O)[C@H](CCc2ccc(C(F)(F)F)c(Cl)c2)NC(=O)CN(C)C(=O)[C@@H]1Cc1ccc(C(F)(F)F)cc1 [PP0191] ([NMeAbu(4,4,4-F3)]I[NMeA][Aze][NPrPhe(4-CF3)][Sar][hPhe(3-Cl-4-CF3)]P[Ac5c][NMeGly(cPent)][NMeD]-Morpholide; lactam N-11)	C (A compound having a KD ratio of 0.1 or more and less than 3 is denoted as C)	B (a compound having 3 or more and less than 10 is denoted as B)
CCCN1C(=O)[C@@H]2CCN2C(=O)[C@H](C)N(C)C(=O)[C@H]([C@@H](C)CC)NC(=O)[C@H](C2CCC2)N(C)C(=O)C[C@@H](C(=O)N2CCOCC2)N(C)C(=O)[C@H](C2CCCC2)N(C)C(=O)C2(CCCC2)NC(=O)[C@@H]2CCCN2C(=O)[C@H](CCc2ccc(C(F)(F)F)c(Cl)c2)NC(=O)CN(C)C(=O)[C@@H]1Cc1ccc(C(F)(F)F)cc1 [PP0192] ([NMeGly(cBu)]I[NMeA][Aze][NPrPhe(4-CF3)][Sar][hPhe(3-Cl-4-CF3)]P[Ac5c][NMeGly(cPent)][NMeD]-Morpholide; lactam N-11)	C (A compound having a KD ratio of 0.1 or more and less than 3 is denoted as C)	B (a compound having 3 or more and less than 10 is denoted as B)
CCC[C@H]1C(=O)N[C@@H]([C@@H](C)CC)C(=O)N(C)[C@@H](C)C(=O)N2CC[C@H]2C(=O)N(CCC)[C@@H](Cc2ccc(C(F)(F)F)cc2)C(=O)N(C)CC(=O)N[C@@H](CCc2ccc(C(F)(F)F)c(Cl)c2)C(=O)N2CCC[C@H]2C(=O)NC2(CCCC2)C(=O)N(C)[C@@H](C2CCCC2)C(=O)N(C)[C@H](C(=O)N2CCOCC2)CC(=O)N1C [PP0193] ([NMeNva]I[NMeA][Aze][NPrPhe(4-CF3)][Sar][hPhe(3-Cl-4-CF3)]P[Ac5c][NMeGly(cPent)][NMeD]-Morpholide; lactam N-11)	C (A compound having a KD ratio of 0.1 or more and less than 3 is denoted as C)	C (A compound having a KD ratio of 0.1 or more and less than 3 is denoted as C)
CCCN1C(=O)[C@@H]2CCN2C(=O)[C@H](C)N(C)C(=O)[C@H]([C@@H](C)CC)NC(=O)[C@H](CC)N(C)C(=O)C[C@@H](C(=O)N2CCOCC2)N(C)C(=O)[C@H](C2CCCC2)N(C)C(=O)C2(CCCC2)NC(=O)[C@@H]2CCCN2C(=O)[C@H](CCc2ccc(C(F)(F)F)c(Cl)c2)NC(=O)CN(C)C(=O)[C@@H]1Cc1ccc(C(F)(F)F)cc1 [PP0194] ([NMeAbu]I[NMeA][Aze][NPrPhe(4-CF3)][Sar][hPhe(3-Cl-4-CF3)]P[Ac5c][NMeGly(cPent)][NMeD]-Morpholide; lactam N-11)	C (A compound having a KD ratio of 0.1 or more and less than 3 is denoted as C)	B (a compound having 3 or more and less than 10 is denoted as B)
CCCN1C(=O)CN(C)C(=O)CN(C)C(=O)[C@H]([C@@H](C)CC)NC(=O)[C@H](CC(C)C)N(C)C(=O)C[C@@H](C(=O)N2CCOCC2)N(C)C(=O)[C@H](C2CCCC2)N(C)C(=O)C2(CCCC2)NC(=O)[C@@H]2CC(F)(F)CN2C(=O)[C@H](CCc2ccc(C(F)(F)F)c(Cl)c2)NC(=O)CN(C)C(=O)[C@@H]1Cc1ccc(C(F)(F)F)cc1 [PP0195] ([NMeL]I[Sar][Sar][NPrPhe(4-CF3)][Sar][hPhe(3-Cl-4-CF3)][Pro(4,4-F2)][Ac5c][NMeGly(cPent)][NMeD]-Morpholide; lactam N-11)	B (a compound having 3 or more and less than 10 is denoted as B)	C (A compound having a KD ratio of 0.1 or more and less than 3 is denoted as C)
CCCN1C(=O)[C@@H]2CCN2C(=O)[C@H](C)N(C)C(=O)[C@H]([C@@H](C)CC)NC(=O)[C@H](CC(C)C)N(C)C(=O)C[C@@H](C(=O)N2CCOCC2)N(C)C(=O)[C@H](C2CCCC2)N(C)C(=O)C2(CCCC2)NC(=O)[C@@H]2CC(F)(F)CN2C(=O)[C@H](CCc2ccc(C(F)(F)F)c(Cl)c2)NC(=O)CN(C)C(=O)[C@@H]1Cc1ccc(C(F)(F)F)cc1 [PP0196] ([NMeL]I[NMeA][Aze][NPrPhe(4-CF3)][Sar][hPhe(3-Cl-4-CF3)][Pro(4,4-F2)][Ac5c][NMeGly(cPent)][NMeD]-Morpholide; lactam N-11)	C (A compound having a KD ratio of 0.1 or more and less than 3 is denoted as C)	C (A compound having a KD ratio of 0.1 or more and less than 3 is denoted as C)
CCCN1C(=O)CN(C)C(=O)CN(C)C(=O)[C@H]([C@@H](C)CC)NC(=O)[C@H](CC(C)C)N(C)C(=O)C[C@@H](C(=O)N2CCOCC2)N(C)C(=O)[C@H](C2CCCC2)N(C)C(=O)C2(CCC2)NC(=O)[C@@H]2CCCN2C(=O)[C@H](CCc2ccc(C(F)(F)F)c(Cl)c2)NC(=O)CN(C)C(=O)[C@@H]1Cc1ccc(C(F)(F)F)cc1 [PP0197] ([NMeL]I[Sar][Sar][NPrPhe(4-CF3)][Sar][hPhe(3-Cl-4-CF3)]P[Ac4c][NMeGly(cPent)][NMeD]-Morpholide; lactam N-11)	B (a compound having 3 or more and less than 10 is denoted as B)	C (A compound having a KD ratio of 0.1 or more and less than 3 is denoted as C)
CCCN1C(=O)[C@@H]2CCN2C(=O)[C@H](C)N(C)C(=O)[C@H]([C@@H](C)CC)NC(=O)[C@H](CC(C)C)N(C)C(=O)C[C@@H](C(=O)N2CCOCC2)N(C)C(=O)[C@H](C2CCCC2)N(C)C(=O)C2(CCC2)NC(=O)[C@@H]2CCCN2C(=O)[C@H](CCc2ccc(C(F)(F)F)c(Cl)c2)NC(=O)CN(C)C(=O)[C@@H]1Cc1ccc(C(F)(F)F)cc1 [PP0198] ([NMeL]I[NMeA][Aze][NPrPhe(4-CF3)][Sar][hPhe(3-Cl-4-CF3)]P[Ac4c][NMeGly(cPent)][NMeD]-Morpholide; lactam N-11)	C (A compound having a KD ratio of 0.1 or more and less than 3 is denoted as C)	B (a compound having 3 or more and less than 10 is denoted as B)
CCCN1C(=O)CN(C)C(=O)CN(C)C(=O)[C@H]([C@@H](C)CC)NC(=O)[C@H](CC(F)(F)F)N(C)C(=O)C[C@@H](C(=O)N2CCOCC2)N(C)C(=O)[C@H](C2CCCC2)N(C)C(=O)C2(CCCC2)NC(=O)[C@@H]2CC(F)(F)CN2C(=O)[C@H](CCc2ccc(C(F)(F)F)c(Cl)c2)NC(=O)CN(C)C(=O)[C@@H]1Cc1ccc(C(F)(F)F)cc1 [PP0199] ([NMeAbu(4,4,4-F3)]I[Sar][Sar][NPrPhe(4-CF3)][Sar][hPhe(3-Cl-4-CF3)][Pro(4,4-F2)][Ac5c][NMeGly(cPent)][NMeD]-Morpholide; lactam N-11)	B (a compound having 3 or more and less than 10 is denoted as B)	C (A compound having a KD ratio of 0.1 or more and less than 3 is denoted as C)
CCCN1C(=O)CN(C)C(=O)CN(C)C(=O)[C@H]([C@@H](C)CC)NC(=O)[C@H](C2CCC2)N(C)C(=O)C[C@@H](C(=O)N2CCOCC2)N(C)C(=O)[C@H](C2CCCC2)N(C)C(=O)C2(CCCC2)NC(=O)[C@@H]2CC(F)(F)CN2C(=O)[C@H](CCc2ccc(C(F)(F)F)c(Cl)c2)NC(=O)CN(C)C(=O)[C@@H]1Cc1ccc(C(F)(F)F)cc1 [PP0200] ([NMeGly(cBu)]I[Sar][Sar][NPrPhe(4-CF3)][Sar][hPhe(3-Cl-4-CF3)][Pro(4,4-F2)][Ac5c][NMeGly(cPent)][NMeD]-Morpholide; lactam N-11)	C (A compound having a KD ratio of 0.1 or more and less than 3 is denoted as C)	C (A compound having a KD ratio of 0.1 or more and less than 3 is denoted as C)
CCC[C@H]1C(=O)N[C@@H]([C@@H](C)CC)C(=O)N(C)CC(=O)N(C)CC(=O)N(CCC)[C@@H](Cc2ccc(C(F)(F)F)cc2)C(=O)N(C)CC(=O)N[C@@H](CCc2ccc(C(F)(F)F)c(Cl)c2)C(=O)N2CC(F)(F)C[C@H]2C(=O)NC2(CCCC2)C(=O)N(C)[C@@H](C2CCCC2)C(=O)N(C)[C@H](C(=O)N2CCOCC2)CC(=O)N1C [PP0201] ([NMeNva]I[Sar][Sar][NPrPhe(4-CF3)][Sar][hPhe(3-Cl-4-CF3)][Pro(4,4-F2)][Ac5c][NMeGly(cPent)][NMeD]-Morpholide; lactam N-11)	B (a compound having 3 or more and less than 10 is denoted as B)	C (A compound having a KD ratio of 0.1 or more and less than 3 is denoted as C)
CCCN1C(=O)CN(C)C(=O)CN(C)C(=O)[C@H]([C@@H](C)CC)NC(=O)[C@H](CC)N(C)C(=O)C[C@@H](C(=O)N2CCOCC2)N(C)C(=O)[C@H](C2CCCC2)N(C)C(=O)C2(CCCC2)NC(=O)[C@@H]2CC(F)(F)CN2C(=O)[C@H](CCc2ccc(C(F)(F)F)c(Cl)c2)NC(=O)CN(C)C(=O)[C@@H]1Cc1ccc(C(F)(F)F)cc1 [PP0202] ([NMeAbu]I[Sar][Sar][NPrPhe(4-CF3)][Sar][hPhe(3-Cl-4-CF3)][Pro(4,4-F2)][Ac5c][NMeGly(cPent)][NMeD]-Morpholide; lactam N-11)	B (a compound having 3 or more and less than 10 is denoted as B)	C (A compound having a KD ratio of 0.1 or more and less than 3 is denoted as C)
